# Measured values: ChEMBL document CHEMBL1201862, “PubChem BioAssay data set” (2004)
# The source made the active and inactive calls.
# Legend:
# [1] = biological target: Induced myeloid leukemia cell differentiation protein Mcl-1 (Homo sapiens, UniProt Q07820); type: functional
# [2] = biological target: Intestinal-type alkaline phosphatase (Mus musculus, UniProt P24822); assay: PubChem AID 488785; type: functional
# [3] = biological target: T1, Alkaline phosphatase, tissue-nonspecific isozyme (Homo sapiens, UniProt P05186); assay: TNAP enzyme inhibition by screening hits, dose response, selectivity assay for mouse IAP inhibitor project, biochemical, human TNAP, uHTS hits (AID 488906); type: functional
# T1 sequence (P05186 whole entry): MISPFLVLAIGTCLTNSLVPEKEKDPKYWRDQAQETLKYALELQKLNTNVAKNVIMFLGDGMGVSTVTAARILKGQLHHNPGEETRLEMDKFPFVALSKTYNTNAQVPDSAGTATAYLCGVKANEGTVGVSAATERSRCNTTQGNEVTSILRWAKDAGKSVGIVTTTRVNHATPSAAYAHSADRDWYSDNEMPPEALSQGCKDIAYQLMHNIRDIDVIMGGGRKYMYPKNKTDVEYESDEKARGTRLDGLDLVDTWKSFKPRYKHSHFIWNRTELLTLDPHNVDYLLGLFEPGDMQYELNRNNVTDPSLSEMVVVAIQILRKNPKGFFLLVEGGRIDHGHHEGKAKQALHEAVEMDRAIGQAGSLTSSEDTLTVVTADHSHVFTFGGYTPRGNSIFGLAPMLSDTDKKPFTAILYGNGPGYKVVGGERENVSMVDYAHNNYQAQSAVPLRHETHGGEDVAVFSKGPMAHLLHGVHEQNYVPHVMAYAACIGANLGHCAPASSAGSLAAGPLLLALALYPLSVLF
# [4] = biological target: Intestinal-type alkaline phosphatase (Homo sapiens, UniProt P09923); assay: inhibition of human intestinal alkaline phosphatase – biochemical, dose response (AID 488876); type: functional
# [5] = biological target: Multidrug resistance protein CDR2 (Candida albicans (strain SC5314 / ATCC MYA-2876) (Yeast), UniProt P78595); assay: inhibition of Nile Red efflux via Candida CDR2 – S. cerevisiae AD1-8u, singleplex, Cherry Pick1 hits, dose response (AID 588604); type: functional
# [6] = biological target: Dual specificity tyrosine-phosphorylation-regulated kinase 1A (Rattus norvegicus, UniProt Q63470); type: biochemical, Homo sapiens
# [7] = biological target: 26S proteasome non-ATPase regulatory subunit 14 (Homo sapiens, UniProt O00487); assay: inhibition of proteasome subunit RPN11 – biochemical, fluorescence polarization, uHTS hits, confirmation (AID 602368); type: functional
# Sequence of 26S proteasome non-ATPase regulatory subunit 14 (O00487 whole entry): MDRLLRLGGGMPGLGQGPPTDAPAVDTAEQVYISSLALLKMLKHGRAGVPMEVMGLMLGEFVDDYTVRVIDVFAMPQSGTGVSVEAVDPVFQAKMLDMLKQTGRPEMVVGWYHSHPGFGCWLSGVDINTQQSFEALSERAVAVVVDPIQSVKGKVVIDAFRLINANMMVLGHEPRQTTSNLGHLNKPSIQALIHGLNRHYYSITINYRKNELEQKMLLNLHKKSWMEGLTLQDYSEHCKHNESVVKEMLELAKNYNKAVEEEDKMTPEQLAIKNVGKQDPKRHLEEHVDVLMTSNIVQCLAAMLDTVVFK
# [8] = biological target: 72 kDa type IV collagenase (Homo sapiens, UniProt P08253); assay: Dose Response validation of uHTS RPN11 inhibitor hits using a MMP-2 Fluorescence assay.; type: functional
# Sequence of 72 kDa type IV collagenase (P08253 whole entry): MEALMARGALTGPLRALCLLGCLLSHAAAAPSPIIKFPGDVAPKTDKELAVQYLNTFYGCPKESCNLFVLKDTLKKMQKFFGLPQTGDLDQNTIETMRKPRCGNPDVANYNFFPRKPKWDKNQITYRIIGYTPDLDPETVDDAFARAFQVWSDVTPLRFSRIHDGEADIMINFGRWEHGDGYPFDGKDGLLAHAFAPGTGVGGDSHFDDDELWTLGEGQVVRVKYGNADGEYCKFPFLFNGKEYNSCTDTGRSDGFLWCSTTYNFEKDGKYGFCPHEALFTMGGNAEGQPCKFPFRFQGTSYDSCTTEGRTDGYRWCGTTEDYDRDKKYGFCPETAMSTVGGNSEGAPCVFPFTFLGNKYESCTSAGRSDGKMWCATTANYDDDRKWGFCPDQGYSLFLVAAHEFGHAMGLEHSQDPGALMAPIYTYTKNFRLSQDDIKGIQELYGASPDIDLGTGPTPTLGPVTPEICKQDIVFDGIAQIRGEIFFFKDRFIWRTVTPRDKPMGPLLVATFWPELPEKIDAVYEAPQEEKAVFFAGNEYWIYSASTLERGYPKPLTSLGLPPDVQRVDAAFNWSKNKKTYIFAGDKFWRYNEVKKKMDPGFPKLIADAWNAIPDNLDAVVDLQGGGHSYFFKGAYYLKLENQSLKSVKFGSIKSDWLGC
# Prothrombin = Prothrombin (Bos taurus, UniProt P00735); assay: thrombin protease inhibitors – biochemical, fluorescence polarization, uHTS hits, dose response (AID 602369); type: functional
# [9] = biological target: T2, Rac GTPase-activating protein 1 (Homo sapiens, UniProt Q9H0H5); assay: blockers of MgcRacGAP-driven Rac1 GTP hydrolysis – biochemical, ADP Hunter fluorescence, primary and confirmatory, confirmation (AID 624330); type: functional
# T2 sequence (Q9H0H5 whole entry): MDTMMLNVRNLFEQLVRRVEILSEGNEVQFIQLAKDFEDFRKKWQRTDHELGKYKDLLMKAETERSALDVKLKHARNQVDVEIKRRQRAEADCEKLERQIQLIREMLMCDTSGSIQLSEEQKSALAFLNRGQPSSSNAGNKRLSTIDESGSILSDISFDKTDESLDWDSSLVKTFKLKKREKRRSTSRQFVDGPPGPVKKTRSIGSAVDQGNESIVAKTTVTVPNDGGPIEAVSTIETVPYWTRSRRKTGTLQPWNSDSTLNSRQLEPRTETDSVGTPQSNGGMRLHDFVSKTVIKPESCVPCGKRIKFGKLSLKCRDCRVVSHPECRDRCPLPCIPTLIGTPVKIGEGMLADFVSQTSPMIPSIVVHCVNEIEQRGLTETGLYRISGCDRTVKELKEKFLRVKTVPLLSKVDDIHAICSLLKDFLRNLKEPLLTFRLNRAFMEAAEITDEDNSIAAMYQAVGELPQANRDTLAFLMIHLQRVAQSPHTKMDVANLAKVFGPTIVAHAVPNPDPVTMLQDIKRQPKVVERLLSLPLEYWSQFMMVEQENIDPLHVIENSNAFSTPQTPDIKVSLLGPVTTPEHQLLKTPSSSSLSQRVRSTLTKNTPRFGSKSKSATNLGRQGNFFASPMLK
# [10] = biological target: T3, Neuropeptides B/W receptor type 1 (Homo sapiens, UniProt P48145); assay: human NPBW1 receptor blockade, IC50 – cell-based, fluorescence, dose response, set 5, late-stage follow-up (AID 588566); type: functional
# T3 sequence (P48145 whole entry): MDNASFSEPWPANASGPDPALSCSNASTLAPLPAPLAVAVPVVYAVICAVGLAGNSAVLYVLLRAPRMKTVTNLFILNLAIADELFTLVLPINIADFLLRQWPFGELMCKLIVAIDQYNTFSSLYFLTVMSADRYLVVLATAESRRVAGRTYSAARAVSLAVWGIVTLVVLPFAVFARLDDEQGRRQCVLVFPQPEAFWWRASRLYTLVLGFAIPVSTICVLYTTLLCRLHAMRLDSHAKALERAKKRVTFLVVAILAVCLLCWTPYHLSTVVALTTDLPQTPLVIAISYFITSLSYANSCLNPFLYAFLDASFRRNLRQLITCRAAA
# [11] = biological target: Melanin-concentrating hormone receptor 1 (Homo sapiens, UniProt Q99705); assay: Late-stage fluorescence-based counterscreen for antagonists of the G-protein coupled receptor 7 (GPR7): cell-based dose response assay to identify antagonists of the melanin-concentrating hormone receptor 1 (MCHR1) Set 5.; type: functional
# Sequence of Melanin-concentrating hormone receptor 1 (Q99705 whole entry): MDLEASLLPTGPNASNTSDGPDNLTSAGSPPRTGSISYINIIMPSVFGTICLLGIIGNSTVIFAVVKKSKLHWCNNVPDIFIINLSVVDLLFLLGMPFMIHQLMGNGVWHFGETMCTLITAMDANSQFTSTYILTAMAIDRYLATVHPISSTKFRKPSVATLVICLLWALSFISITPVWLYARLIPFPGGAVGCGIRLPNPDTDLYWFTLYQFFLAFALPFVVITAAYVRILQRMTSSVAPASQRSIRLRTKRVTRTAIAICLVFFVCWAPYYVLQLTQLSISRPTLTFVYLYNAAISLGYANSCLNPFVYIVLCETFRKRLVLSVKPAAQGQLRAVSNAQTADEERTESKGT
# [12] = biological target: T4, Replicative DNA helicase DnaB (Mycobacterium tuberculosis, UniProt P9WMR3); assay: DnaB intein splicing inhibitors, dose response, biochemical, cell-free fluorescence (AID 449749); type: functional
# T4 sequence (P9WMR3 whole entry): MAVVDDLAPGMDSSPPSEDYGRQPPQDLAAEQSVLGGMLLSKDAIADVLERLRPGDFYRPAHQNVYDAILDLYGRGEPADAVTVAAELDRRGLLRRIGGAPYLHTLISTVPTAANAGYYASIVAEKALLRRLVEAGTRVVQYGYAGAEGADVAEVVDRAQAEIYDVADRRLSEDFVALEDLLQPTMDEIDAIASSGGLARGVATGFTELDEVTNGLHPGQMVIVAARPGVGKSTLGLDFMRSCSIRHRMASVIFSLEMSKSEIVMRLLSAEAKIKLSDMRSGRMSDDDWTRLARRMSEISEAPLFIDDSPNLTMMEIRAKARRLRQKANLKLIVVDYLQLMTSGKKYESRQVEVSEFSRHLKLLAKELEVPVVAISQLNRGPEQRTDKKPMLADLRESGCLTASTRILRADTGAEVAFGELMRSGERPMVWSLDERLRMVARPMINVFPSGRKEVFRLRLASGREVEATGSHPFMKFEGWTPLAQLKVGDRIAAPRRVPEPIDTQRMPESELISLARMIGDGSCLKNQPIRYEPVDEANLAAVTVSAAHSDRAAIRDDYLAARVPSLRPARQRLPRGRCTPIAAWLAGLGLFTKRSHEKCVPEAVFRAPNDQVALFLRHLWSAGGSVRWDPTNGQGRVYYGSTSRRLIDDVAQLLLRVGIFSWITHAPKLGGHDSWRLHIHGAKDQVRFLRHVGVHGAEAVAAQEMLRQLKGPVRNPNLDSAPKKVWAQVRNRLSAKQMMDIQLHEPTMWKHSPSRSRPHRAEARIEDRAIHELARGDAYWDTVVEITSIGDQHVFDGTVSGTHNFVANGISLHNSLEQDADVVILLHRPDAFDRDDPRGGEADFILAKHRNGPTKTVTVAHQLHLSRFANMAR
# Protein RecA = biological target: T5, Protein RecA (Mycobacterium tuberculosis, UniProt P9WHJ3); assay: Fluorescence Cell-Free Homogeneous Dose Retest to Identify Inhibitors of RecA-Intein Splicing Activity. [Related pubchem assays (depositor defined):AID2097, AID2223, AID489010, AID492950]; type: functional
# T5 sequence (P9WHJ3 whole entry): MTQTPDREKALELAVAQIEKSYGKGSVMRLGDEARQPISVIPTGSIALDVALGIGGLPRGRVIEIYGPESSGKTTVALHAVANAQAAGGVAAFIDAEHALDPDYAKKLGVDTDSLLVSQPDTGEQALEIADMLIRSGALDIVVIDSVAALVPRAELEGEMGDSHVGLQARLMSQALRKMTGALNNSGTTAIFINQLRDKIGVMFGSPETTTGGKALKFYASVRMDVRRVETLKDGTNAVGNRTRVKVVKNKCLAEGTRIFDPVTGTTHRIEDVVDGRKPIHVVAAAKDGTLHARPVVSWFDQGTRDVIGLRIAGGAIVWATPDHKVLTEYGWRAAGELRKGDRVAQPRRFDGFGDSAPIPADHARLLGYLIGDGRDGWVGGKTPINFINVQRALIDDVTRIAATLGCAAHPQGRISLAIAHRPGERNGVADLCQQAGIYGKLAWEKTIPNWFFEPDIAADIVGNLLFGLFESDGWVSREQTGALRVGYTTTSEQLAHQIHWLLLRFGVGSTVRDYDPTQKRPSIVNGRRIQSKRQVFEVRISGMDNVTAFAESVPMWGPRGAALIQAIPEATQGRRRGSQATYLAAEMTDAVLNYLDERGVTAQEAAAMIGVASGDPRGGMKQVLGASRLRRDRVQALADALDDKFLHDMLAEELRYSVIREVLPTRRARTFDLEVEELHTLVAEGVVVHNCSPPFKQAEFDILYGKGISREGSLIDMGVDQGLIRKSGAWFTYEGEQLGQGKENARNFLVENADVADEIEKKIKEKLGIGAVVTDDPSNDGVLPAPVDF
# Melanocortin receptor 4 = Melanocortin receptor 4 (Homo sapiens, UniProt P32245); assay: inhibitors of MC4R cAMP signaling – cell-based, TR-FRET, biased antagonists, dose response (AID 602298); type: functional;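 also: antagonist potency against agonist-stimulated cAMP production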
# Sequence of Melanocortin receptor 4 (P32245 whole entry): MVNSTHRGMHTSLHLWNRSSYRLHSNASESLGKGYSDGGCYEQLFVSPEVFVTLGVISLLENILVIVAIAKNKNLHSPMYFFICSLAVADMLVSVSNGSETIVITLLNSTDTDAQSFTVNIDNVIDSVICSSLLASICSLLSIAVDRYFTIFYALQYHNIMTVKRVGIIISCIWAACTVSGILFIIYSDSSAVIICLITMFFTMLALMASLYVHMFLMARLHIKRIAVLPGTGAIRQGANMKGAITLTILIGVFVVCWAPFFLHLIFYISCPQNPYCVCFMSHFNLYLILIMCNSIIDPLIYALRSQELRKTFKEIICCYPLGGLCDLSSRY
# [13] = biological target: DNA dC->dU-editing enzyme APOBEC-3G (Homo sapiens, UniProt Q9HC16); assay: inhibition of APOBEC3G ssDNA deamination – biochemical, fluorescence, single-stranded DNA substrate, SAR follow-up (AID 602136); type: functional; conditions: read-out: IC50_Mean
# Sequence of DNA dC->dU-editing enzyme APOBEC-3G (Q9HC16 whole entry): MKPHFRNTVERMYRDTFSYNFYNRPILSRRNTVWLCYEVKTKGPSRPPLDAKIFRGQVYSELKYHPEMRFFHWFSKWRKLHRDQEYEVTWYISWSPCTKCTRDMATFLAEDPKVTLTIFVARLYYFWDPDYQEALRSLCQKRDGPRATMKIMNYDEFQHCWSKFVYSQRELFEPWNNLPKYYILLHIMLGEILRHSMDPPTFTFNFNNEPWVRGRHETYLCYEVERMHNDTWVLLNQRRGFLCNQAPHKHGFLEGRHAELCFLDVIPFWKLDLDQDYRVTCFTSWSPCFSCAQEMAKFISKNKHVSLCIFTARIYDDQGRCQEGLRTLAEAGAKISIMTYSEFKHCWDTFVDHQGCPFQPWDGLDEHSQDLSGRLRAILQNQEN
# [14] = cAMP pathway inhibition in counterscreen cell line – TR-FRET cAMP detection, counter-screen for MC4R biased antagonist project, dose response (AID 602305); type: functional, cell-based;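 also: U2OS cells stimulated with forskolin near its EC80 as the cAMP inducer; potency is for inhibition of forskolin-stimulated cAMP signaling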
# [15] = biological target: DNA dC->dU-editing enzyme APOBEC-3A (Homo sapiens, UniProt P31941); assay: SAR analysis of small molecule inhibitors of APOBEC3A DNA Deaminase via a fluorescence-based single-stranded DNA deaminase assay.; type: functional; conditions: read-out: IC50_Mean
# Sequence of DNA dC->dU-editing enzyme APOBEC-3A (P31941 whole entry): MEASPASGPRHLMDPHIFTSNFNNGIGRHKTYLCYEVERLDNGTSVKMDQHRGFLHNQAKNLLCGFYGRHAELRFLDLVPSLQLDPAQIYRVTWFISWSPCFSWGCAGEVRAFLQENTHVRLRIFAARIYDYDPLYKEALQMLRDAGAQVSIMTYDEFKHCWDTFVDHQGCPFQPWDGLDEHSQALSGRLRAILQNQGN
# [16] = biological target: T6, Protein disulfide-isomerase (Homo sapiens, UniProt P07237); assay: inhibition of PDI-driven insulin aggregation – biochemical, turbidity, absorbance, cherry-picked samples, dose response (AID 602350); type: functional
# T6 sequence (P07237 whole entry): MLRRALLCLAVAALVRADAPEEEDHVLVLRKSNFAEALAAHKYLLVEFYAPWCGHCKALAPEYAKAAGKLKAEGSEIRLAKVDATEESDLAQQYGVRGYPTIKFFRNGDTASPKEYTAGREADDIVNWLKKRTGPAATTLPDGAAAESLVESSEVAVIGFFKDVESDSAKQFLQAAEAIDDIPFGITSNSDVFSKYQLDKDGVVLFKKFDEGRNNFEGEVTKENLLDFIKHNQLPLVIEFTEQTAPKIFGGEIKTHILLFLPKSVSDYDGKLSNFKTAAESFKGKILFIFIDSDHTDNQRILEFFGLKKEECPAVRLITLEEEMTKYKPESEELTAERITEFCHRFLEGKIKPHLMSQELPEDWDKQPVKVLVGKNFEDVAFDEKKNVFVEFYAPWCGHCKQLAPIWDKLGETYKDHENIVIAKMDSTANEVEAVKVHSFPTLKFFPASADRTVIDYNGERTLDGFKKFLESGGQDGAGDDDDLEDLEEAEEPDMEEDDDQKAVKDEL
# [17] = biological target: T6, Protein disulfide-isomerase; assay: inhibition of PDI-mediated insulin reduction – biochemical, turbidity, absorbance, cherry-picked samples, set 2, dose response (AID 624274); type: functional
# [18] = biological target: Cell division cycle 7-related protein kinase (Homo sapiens, UniProt O00311); type: functional;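 also: value obtained from a kinome-wide kinase panel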
# Sequence of Cell division cycle 7-related protein kinase (O00311 whole entry): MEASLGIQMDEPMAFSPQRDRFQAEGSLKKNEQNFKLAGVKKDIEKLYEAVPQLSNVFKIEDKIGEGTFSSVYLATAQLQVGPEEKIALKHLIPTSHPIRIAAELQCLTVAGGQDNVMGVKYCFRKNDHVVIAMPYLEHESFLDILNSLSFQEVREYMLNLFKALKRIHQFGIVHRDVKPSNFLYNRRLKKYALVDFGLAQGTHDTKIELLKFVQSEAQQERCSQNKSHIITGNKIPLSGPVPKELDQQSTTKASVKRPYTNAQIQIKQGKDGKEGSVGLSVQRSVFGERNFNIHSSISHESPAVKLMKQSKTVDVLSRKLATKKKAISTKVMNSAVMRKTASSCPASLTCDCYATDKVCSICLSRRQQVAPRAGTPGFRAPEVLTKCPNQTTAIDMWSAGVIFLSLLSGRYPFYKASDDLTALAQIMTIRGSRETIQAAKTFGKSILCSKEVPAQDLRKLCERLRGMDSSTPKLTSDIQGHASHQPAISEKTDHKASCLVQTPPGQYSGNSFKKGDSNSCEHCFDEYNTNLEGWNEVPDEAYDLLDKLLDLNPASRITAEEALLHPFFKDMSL
# [19] = biological target: Homeodomain-interacting protein kinase 2 (Homo sapiens, UniProt Q9H2X6); type: functional;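 also: measured within a kinome-wide kinase profiling panel, HIPK2 being one panel member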
# [20] = biological target: Interleukin-1 receptor-associated kinase 4 (Homo sapiens, UniProt Q9NWZ3); type: functional
# [21] = biological target: Glycogen synthase kinase-3 beta (Homo sapiens, UniProt P49841); type: functional;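 also: value comes from a broad kinome profiling panel, with GSK3B as the panel member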
# [22] = biological target: Dual specificity protein kinase CLK4 (Homo sapiens, UniProt Q9HAZ1); type: functional
# [23] = biological target: Mitogen-activated protein kinase kinase kinase kinase 4 (Homo sapiens, UniProt O95819); type: functional
# Sequence of Mitogen-activated protein kinase kinase kinase kinase 4 (O95819 whole entry): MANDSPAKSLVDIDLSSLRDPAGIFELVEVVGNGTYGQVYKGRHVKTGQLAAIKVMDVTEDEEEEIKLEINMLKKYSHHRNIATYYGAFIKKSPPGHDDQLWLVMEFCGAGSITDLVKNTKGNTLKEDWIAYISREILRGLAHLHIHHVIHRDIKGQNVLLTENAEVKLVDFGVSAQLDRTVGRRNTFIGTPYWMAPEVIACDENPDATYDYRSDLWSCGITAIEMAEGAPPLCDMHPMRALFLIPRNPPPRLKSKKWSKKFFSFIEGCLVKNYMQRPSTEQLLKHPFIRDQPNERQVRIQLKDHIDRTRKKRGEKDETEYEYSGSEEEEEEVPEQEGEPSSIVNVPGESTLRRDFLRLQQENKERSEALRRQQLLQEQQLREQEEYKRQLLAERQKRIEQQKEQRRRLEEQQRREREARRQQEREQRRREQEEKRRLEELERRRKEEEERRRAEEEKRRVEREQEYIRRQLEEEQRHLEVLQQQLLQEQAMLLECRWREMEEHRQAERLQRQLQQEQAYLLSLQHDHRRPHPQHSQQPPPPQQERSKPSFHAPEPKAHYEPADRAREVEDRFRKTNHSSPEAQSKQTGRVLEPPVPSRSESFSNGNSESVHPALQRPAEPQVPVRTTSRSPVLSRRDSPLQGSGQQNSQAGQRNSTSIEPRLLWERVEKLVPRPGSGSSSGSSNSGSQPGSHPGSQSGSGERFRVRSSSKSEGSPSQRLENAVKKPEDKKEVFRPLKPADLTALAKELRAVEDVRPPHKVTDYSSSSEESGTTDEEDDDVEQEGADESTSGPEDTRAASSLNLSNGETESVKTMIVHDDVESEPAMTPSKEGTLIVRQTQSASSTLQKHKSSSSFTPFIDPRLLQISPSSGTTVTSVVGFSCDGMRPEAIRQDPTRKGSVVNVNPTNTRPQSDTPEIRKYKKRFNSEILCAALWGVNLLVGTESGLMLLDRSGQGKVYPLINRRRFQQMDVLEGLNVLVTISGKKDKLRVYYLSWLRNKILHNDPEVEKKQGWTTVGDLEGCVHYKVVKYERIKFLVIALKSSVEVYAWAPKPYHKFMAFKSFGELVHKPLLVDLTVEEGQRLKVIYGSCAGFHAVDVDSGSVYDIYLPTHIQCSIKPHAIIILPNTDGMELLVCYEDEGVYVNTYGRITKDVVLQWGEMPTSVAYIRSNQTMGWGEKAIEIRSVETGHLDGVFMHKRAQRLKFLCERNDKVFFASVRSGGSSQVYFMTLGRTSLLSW
# Sequence of Induced myeloid leukemia cell differentiation protein Mcl-1 (Q07820 whole entry): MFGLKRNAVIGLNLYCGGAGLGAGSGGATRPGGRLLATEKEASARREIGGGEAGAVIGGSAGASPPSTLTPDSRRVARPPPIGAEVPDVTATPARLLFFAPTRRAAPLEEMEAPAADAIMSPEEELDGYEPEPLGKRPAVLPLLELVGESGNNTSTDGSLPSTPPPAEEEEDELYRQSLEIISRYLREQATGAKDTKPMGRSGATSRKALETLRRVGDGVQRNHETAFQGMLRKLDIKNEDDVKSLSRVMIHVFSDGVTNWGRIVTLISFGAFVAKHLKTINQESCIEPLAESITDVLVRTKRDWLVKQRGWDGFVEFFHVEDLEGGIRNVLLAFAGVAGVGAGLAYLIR
compound,measurement,setting,value
O=C1/C(=C/c2ccc(O)c(O)c2)Oc2cc(O)ccc21 [SULFURETIN],IC50,[1],1.53 µM (active)
same,IC50,[2],19.7 µM (active)
same,IC50,[3],52.9 µM (active)
same,IC50,[4],66.3 µM (active)
same,EC50,[5],0.424 µM (active)
same,AC50,[6],2.32 µM (active)
same,IC50,[7],23.8 µM (active)
same,IC50,[8],> 100 µM (inactive)
same,IC50,Prothrombin,21.7 µM (active)
same,IC50,[9],20.6 µM (active)
N#CC(c1ccccc1)c1cnn(Cc2cccc3ccccc23)c(=O)c1Cl (stereo unspecified),IC50,[10],~0.702 µM (active)
same,IC50,[11],> 20 µM (inactive)
CS(=O)(=O)c1nc([N+](=O)[O-])nn1CCCc1ccccc1,AC50,[12],7.7 µM (active)
same,EC50,Protein RecA,14.5 µM (active)
same,IC50,Melanocortin receptor 4,> 64.5 µM (inactive)
same,IC50,[13],> 99 µM (inactive)
same,IC50,[14],> 64.5 µM (inactive)
same,IC50,[15],> 99 µM (inactive)
CC(NCC(O)COCc1ccc(Cl)cc1)c1ccccc1 (stereo unspecified),AC50,[16],< 0.009 µM (active)
same,AC50,[17],0.009 µM (active)
CN(C)CCCOc1cc(-c2ccncc2)cc2[nH]nc(N)c12,Ki,[18],0.0126 µM (active)
same,Ki,[19],> 3.16 µM (inactive)
same,Ki,[20],0.158 µM (active)
same,Ki,[21],6.31 µM (active)
same,Ki,[22],0.0794 µM (active)
same,Ki,[23],0.794 µM (active)
